Laboratory results as given in publication PMC8664850, “Design, synthesis, and biological evaluation of novel urolithins derivatives as potential phosphodiesterase II inhibitors” (Scientific Reports, 2021).

Legend:
[1] = target: T1, Phosphodiesterase II (PDE2) (Homo sapiens, UniProt O00408); experiment: PDE2 enzyme inhibitory activity, AlphaScreen cAMP kit method; assay type: biochemical; conditions: in vitro, enzyme level, seven concentrations, mean of at least three experiments
T1 construct: the recombinant plasmid pET15b-PDE2A (580–941) was donated; made in house; host or cells: E. coli BL21-Codon Plus (DE3)
T1 sequence (O00408 580-941): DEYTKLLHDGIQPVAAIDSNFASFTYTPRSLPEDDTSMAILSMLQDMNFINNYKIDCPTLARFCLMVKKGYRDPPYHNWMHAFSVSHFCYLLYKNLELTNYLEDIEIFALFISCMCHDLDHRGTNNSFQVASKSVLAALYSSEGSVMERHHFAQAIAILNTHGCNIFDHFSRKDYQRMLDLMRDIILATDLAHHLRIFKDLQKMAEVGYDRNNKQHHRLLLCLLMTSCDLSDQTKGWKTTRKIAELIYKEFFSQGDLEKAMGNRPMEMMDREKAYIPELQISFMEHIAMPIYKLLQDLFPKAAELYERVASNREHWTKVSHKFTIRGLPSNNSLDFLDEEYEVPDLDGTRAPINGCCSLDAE
From the text: The AlphaScreen kit method was used to detect PDE2 inhibitory activity of the 27 synthesized compounds (2a–n and 4a–m) in vitro, each diluted at seven concentrations, and each carried out with three sets of parallel experiments. The IC50 values were obtained by fitting calculations using software Graphpad Prism 7.

IC50 [1] | melting point | SMILES
> 100 µM | 124.6 to 125.2 °C | O=c1oc2cc(OCC3CCOCC3)ccc2c2c1CCCC2 [Compound 4j, 3-((tetrahydro-2H-pyran-4-yl)methoxy)-7,8,9,10-tetrahydro-6H-benzo[c]chromen-6-one]
> 100 µM | 111 to 112.3 °C | O=c1oc2cc(OCCC3OCCO3)ccc2c2c1CCCC2 [Compound 4h, 3-(2-(1,3-dioxolan-2-yl)ethoxy)-7,8,9,10-tetrahydro-6H-benzo[c]chromen-6-one]
> 100 µM |  | Cc1ccc2c(c1)c(=O)oc1cc(OCCC3OCCO3)ccc12 [Compound 2i, 3-(2-(1,3-dioxolan-2-yl)ethoxy)-8-methyl-6H-benzo[c]chromen-6-one]
65.7 µM | 113.3 to 115.1 °C | Cc1ccc2c(c1)c(=O)oc1cc(OCC3CCCCC3)ccc12 [Compound 2j, 3-(cyclohexylmethoxy)-8-methyl-6H-benzo[c]chromen-6-one]
> 100 µM | 158.7 to 160.2 °C | COc1cc(COc2ccc3c(c2)oc(=O)c2cc(C)ccc23)cc(OC)c1 [Compound 2n, 3-((3,5-dimethoxybenzyl)oxy)-8-methyl-6H-benzo[c]chromen-6-one]
> 100 µM | 122.8 to 123.6 °C | Cc1ccc2c(c1)c(=O)oc1cc(OCC3CCCC3)ccc12 [Compound 2f, 3-(cyclopentylmethoxy)-8-methyl-6H-benzo[c]chromen-6-one]
> 100 µM | 110.6 to 112.4 °C | CCCCCOc1ccc2c3c(c(=O)oc2c1)CCCC3 [Compound 4e, 3-(pentyloxy)-7,8,9,10-tetrahydro-6H-benzo[c]chromen-6-one]
> 100 µM | 112.3 to 112.6 °C | CCCOc1ccc2c(c1)oc(=O)c1cc(C)ccc12 [Compound 2b, 8-methyl-3-propoxy-6H-benzo[c]chromen-6-one]
> 100 µM | 148 to 148.6 °C | Cc1ccc2c(c1)c(=O)oc1cc(OCC3CCOCC3)ccc12 [Compound 2k, 8-methyl-3-((tetrahydro-2H-pyran-4-yl)methoxy)-6H-benzo[c]chromen-6-one]
34.3 µM | 85.4 to 87.5 °C | CC(C)Oc1ccc2c3c(c(=O)oc2c1)CCCC3 [Compound 4c, 3-isopropoxy-7,8,9,10-tetrahydro-6H-benzo[c]chromen-6-one]
> 100 µM | 102.3 to 103 °C | Cc1ccc2c(c1)c(=O)oc1cc(OC(C)C)ccc12 [Compound 2c, 3-isopropoxy-8-methyl-6H-benzo[c]chromen-6-one]
> 100 µM | 104.2 to 105.6 °C | CCOc1ccc2c3c(c(=O)oc2c1)CCCC3 [Compound 4a, 3-ethoxy-7,8,9,10-tetrahydro-6H-benzo[c]chromen-6-one]
> 100 µM |  | Cc1ccc2c(c1)c(=O)oc1cc(O)ccc12 [Compound 1, 3-hydroxy-8-methyl-6H-benzo [C]chromen-6-one]
> 100 µM | 128.1 to 129.5 °C | O=c1oc2cc(OCC3OCCO3)ccc2c2c1CCCC2 [Compound 4g, 3-((1,3-dioxolan-2-yl)methoxy)-7,8,9,10-tetrahydro-6H-benzo[c]chromen-6-one]
> 100 µM | 112.2 to 114 °C | O=c1oc2cc(OCC3CCCO3)ccc2c2c1CCCC2 (centres unmarked) [Compound 4f, 3-((tetrahydrofuran-2-yl)methoxy)-7,8,9,10-tetrahydro-6H-benzo[c]chromen-6-one]
34 µM |  | CCCCCOc1ccc2c(c1)oc(=O)c1cc(C)ccc12 [Compound 2e, 8-methyl-3-(pentyloxy)-6H-benzo[c]chromen-6-one]
> 100 µM |  | CCOc1ccc2c(c1)oc(=O)c1cc(C)ccc12 [Compound 2a, 3-ethoxy-8-methyl-6H-benzo[c]chromen-6-one]
93.2 µM |  | O=c1oc2cc(O)ccc2c2c1CCCC2 [Compound 3, 3-Hydroxy-7,8,9,10-tetrahydro-6H-benzo[c]chromen-6-one]
> 100 µM | 107.2 to 109.3 °C | O=c1oc2cc(OCC3CCCCC3)ccc2c2c1CCCC2 [Compound 4i, 3-(cyclohexylmethoxy)-7,8,9,10-tetrahydro-6H-benzo[c]chromen-6-one]
> 100 µM | 122.8 to 123.6 °C | Cc1ccc2c(c1)c(=O)oc1cc(OCC3CCCO3)ccc12 (centres unmarked) [Compound 2g, 8-methyl-3-((tetrahydrofuran-2-yl)methoxy)-6H-benzo[c]chromen-6-one]
> 100 µM | 154.9 to 155.5 °C | Cc1ccc2c(c1)c(=O)oc1cc(OCc3ccccc3F)ccc12 [Compound 2l, 3-((2-fluorobenzyl)oxy)-8-methyl-6H-benzo[c]chromen-6-one]
> 100 µM | 170.1 to 172 °C | Cc1ccc2c(c1)c(=O)oc1cc(OCCC3OCCCO3)ccc12 [Compound 2m, 3-(2-(1,3-dioxan-2-yl)ethoxy)-8-methyl-6H-benzo[c]chromen-6-one]
> 100 µM | 107.1 to 108.3 °C | CCCOc1ccc2c3c(c(=O)oc2c1)CCCC3 [Compound 4b, 3-propoxy-7,8,9,10-tetrahydro-6H-benzo[c]chromen-6-one]
> 100 µM | 98.5 to 99.2 °C | COc1cc(COc2ccc3c4c(c(=O)oc3c2)CCCC4)cc(OC)c1 [Compound 4m, 3-((3,5-dimethoxybenzyl)oxy)-7,8,9,10-tetrahydro-6H-benzo[c]chromen-6-one]
> 100 µM | 107.5 to 108.4 °C | O=c1oc2cc(OCCC3OCCCO3)ccc2c2c1CCCC2 [Compound 4k, 3-(2-(1,3-dioxan-2-yl)ethoxy)-7,8,9,10-tetrahydro-6H-benzo[c]chromen-6-one]
> 100 µM | 124.2 to 125.6 °C | O=c1oc2cc(OCc3ccccc3F)ccc2c2c1CCCC2 [Compound 4l, 3-((2-fluorobenzyl)oxy)-7,8,9,10-tetrahydro-6H-benzo[c]chromen-6-one]
> 100 µM | 148.2 to 148.8 °C | Cc1ccc2c(c1)c(=O)oc1cc(OCC3OCCO3)ccc12 [Compound 2h, 3-((1,3-dioxolan-2-yl)methoxy)-8-methyl-6H-benzo[c]chromen-6-one]

SMILES | IC50 [1] | melting point
CCC(C)Oc1ccc2c3c(c(=O)oc2c1)CCCC3 (centres unmarked) [Compound 4d, 3-(sec-butoxy)-7,8,9,10-tetrahydro-6H-benzo[c]chromen-6-one] | > 100 µM | 74 to 74.2 °C
CCC(C)Oc1ccc2c(c1)oc(=O)c1cc(C)ccc12 (centres unmarked) [Compound 2d, 3-(sec-butoxy)-8-methyl-6H-benzo[c]chromen-6-one] | > 100 µM | 62.6 to 63.4 °C
